# A melting point compilation (Tetko et al.; mined from patent text by program, amines drawn as free bases though some values may be those of a salt)
row,melting point [°C],Structure (SMILES)
1,81 to 82,CCOC(=O)Cc1ccc(NC(=O)C(COS(C)(=O)=O)NS(=O)(=O)c2ccc(F)cc2)cc1 (racemic)
2,136 to 138,CC(C)(C)c1cc(SCCC(=O)N2CCOCC2)cc(C(C)(C)C)c1O
3,176 to 177,CCNC(=O)NC(=S)N1N=C(c2ccc([N+](=O)[O-])cc2)c2cc3c(cc2CC1C)OCO3 (centres undefined)
4,115 to 117,Cc1ccc(C(O)(c2ccc(C)cc2)C2CCN(Cc3ccccc3)CC2)cc1
5,96,Cc1ccc(-c2nc(-c3cnccc3C)sc2F)cc1
6,114 to 117,CCOC(=O)C1=C(C)NC(c2nccn2Cc2ccccc2)=NC1c1ccc(F)cc1Cl (centres undefined)
7,156 to 157,CC(=O)OCC(=O)C1CC(OS(=O)(=O)c2c(C)cc(C)cc2C)C2C3CCC4CC(OC(C)=O)CCC4(C)C3CC(OC(C)=O)C12C (centres undefined)
8,65 to 66,CCCOc1ccc(COCCN2CCOCC2)cc1-c1nc2c(CCC)nn(C)c2c(=O)[nH]1
9,217 to 219,C#CCN1C(=O)COc2cc(F)c(N3C(=O)C4C5CC5CN4C3=O)cc21 (centres undefined)
10,> 300,Cc1cc2c(-c3cccnc3Cl)nc(O)nc2s1
11,110 to 111,CCCCc1cc(O)cc(=O)o1
12,192 to 194,CNC(=O)c1ccccc1Nc1nc(Nc2ccc3c(c2)CCN(C(=O)C(F)(F)F)CC3)ncc1Cl
13,146 to 147,COc1ccc(-c2coc3ccc(-c4nnc(SCc5cccc(F)c5)o4)cc23)cc1
14,171 to 173,COCCNc1sc(-c2cc[nH]n2)c2c1C(=O)CC(C)(C)C2
15,90 to 91.5,COC(=O)[C@H](Cc1cc(Cl)c(OCCCNC(=O)OC(C)(C)C)c(Cl)c1)NC(=O)C(F)(F)F
16,85 to 86,CCN(CC)c1ccc2cc(C(=O)OCCCCCCO)c(=O)oc2c1
17,112 to 113,COc1ccc(C2=NN(C(=O)c3cccnc3)CC2)c(OC)c1
18,110,CCOC(=O)NNC(=O)CC(F)=C(F)F
19,125 to 127,O=C(NCc1ccccc1C(F)(F)F)c1ccc2cnccc2n1
20,162 to 163,COc1ccc(-c2coc3ccc(-c4nnc(SCc5ccc(OC)c(F)c5)o4)cc23)cc1
21,87 to 88,CCOC1(OCC)OC(C)=C(C(=O)OC)[C@@H](NC(C)=O)[C@@H]1C (relative stereo)
22,85 to 87,COc1ccc([N+](=O)[O-])cc1OCCCCl
23,202 to 204,CCCc1c(CNc2ccc(C(=O)O)cc2)ccc(C(C)=O)c1O
24,75 to 78,CCCCc1oc2ccc(C(=O)OC)cc2c1C(=O)c1ccc(OC)cc1

row,melting point [°C],Structure (SMILES)
1,165 to 166,CN1CCN(C)c2c(N)cccc2C1=O
2,101,O=CN(Cc1ccccn1)C1(c2ccc(-c3ccccc3)cc2)CCC1
3,249 to 251,O=C(Nc1nnc(C(F)(F)F)s1)c1ccc2ccccc2c1
4,54 to 54.8,O=C(O)C1(CCCCCCCCCCCCC2(C(F)F)CC2)CC1
5,134 to 136,C[Si](C)(C)C#Cc1ccc2c(C(=O)Nc3cccc(C(F)(F)F)c3)cccc2c1
6,155 to 157,COc1cc(OC)nc(Oc2cccc3c2C(=O)OC3Oc2ccccc2)n1 (centres undefined)
7,172 to 174,CCCc1c(OCC(O)COc2cccc(NC(=O)C(=O)OCC)c2C#N)ccc(C(C)=O)c1O (centres undefined)
8,270 to 273,O=C(O)C1=Cc2cc(OCc3ccc(F)cc3)ccc2S(=O)(=O)CC1
9,69 to 74,Cc1c(C(=O)c2cnn(C(C)(C)C)c2O)ccc(S(C)(=O)=O)c1C1=NOC2CC12 (centres undefined)
10,85 to 86,COC(=O)[C@@H](Cc1ccccc1)NC(=O)OCc1cc2cc(-c3ccccc3)ccc2o1
11,170 to 172,O=Cc1cc2c(s1)CCCc1cc(=O)n(-c3ccc(Cl)cc3)nc1-2
12,121 to 122,O=C(N[C@H](Cc1ccc(C(F)(F)F)cc1)[C@@H](O)c1ccc(F)cc1)c1cccc2c1OCC2 (racemic)
13,200 to 201,CCn1nc(-c2ccccc2)c(C(C)=O)c(Nc2ccc([N+](=O)[O-])cn2)c1=O
14,54,O=c1oc(CO)nn1Cc1ccccc1
15,223 to 224,CSc1ccc(-c2cc3ncn([C@H](C)[C@](O)(Cn4cncn4)c4ccc(F)cc4F)c(=O)c3s2)cc1
16,175 to 177,Oc1ccc(-c2nc3cc(O)cc(C(Br)CBr)c3o2)cc1 (centres undefined)
17,58 to 60,CC(C)NC(=O)NCCCOc1cc(CN2CCCCC2)ccn1
18,101 to 102,COC(c1cccs1)C1C(c2ccccc2)CC(=O)N1C (centres undefined)
19,133 to 135,CC(C)n1c(C=O)c(-c2ccc(F)cc2)c(-c2ccc(F)cc2)c1C(=O)Nc1cccc(C(=O)N(C)C)c1
20,124 to 126,Cc1cc(C(C)NC(=O)NO)c(C)s1 (centres undefined)
21,95 to 96,CC(C)(C(=O)NO)C(O)Cc1ccccc1 (centres undefined)
22,136 to 138,CC(=O)NC[C@H]1CN(c2ccc(N3CCC(c4noc(C)n4)CC3)c(F)c2)C(=O)O1
23,204,Cc1cc(C#N)cc(C(=O)Nc2ccc(F)cn2)n1
24,177 to 178,CC(C)C(NC(=O)OCc1ccccc1)C(=O)NC(Cc1ccccc1)C(O)C(Cc1ccccc1)NC(=O)C(NC(=O)OCc1cccnc1)C(C)C (centres undefined)

row,melting point [°C],Structure (SMILES)
1,198,N#Cc1cnn2c(C(F)(F)F)cc(-c3ccc(F)cc3)nc12
2,194,NC(=O)c1ccc(C(N)=O)c(CC(O)CO)c1 (centres undefined)
3,233 to 234,Cc1nnc(-c2ccc3ncn(C4CCN(S(C)(=O)=O)CC4)c3c2)o1
4,77,O=[N+]([O-])c1cccc([N+](=O)[O-])c1NCCO
5,114 to 115,O=C(c1cccc(C(F)(F)F)c1)c1cc2c(F)ccc(Br)c2o1
6,261,O=C(O)c1cnn2c(C(F)F)cc(-c3ccc(C(F)(F)F)cc3)nc12
7,59,CCOC(=O)c1ccc(C=O)cn1
8,132 to 135,CC(C)S(=O)(=O)Nc1ccc([C@@H](C)C(=O)N[C@@H](C)C(N)=O)cc1
9,> 275,N=C(N)c1ccc(N2CCN(c3ccc(CCC(=O)O)cc3)S2(=O)=O)cc1
10,145,Cc1ccc2c(c1)c(-c1ccnc3c(C(F)(F)F)cccc13)c(C)n2CC(=O)O
11,63 to 65,CC1(C)CCC(C)(C)c2cc(N)ccc21
12,77 to 78,COC(=O)CCn1c(=O)n2n(c1=O)C(C(=O)OC(C)(C)C)C=CC2 (centres undefined)
13,191 to 193,CC#CC1(O)CCC2C3CCC4=CC(=O)CCC4C3C(C(F)F)CC21C (centres undefined)
14,247 to 248,CC1CCOCc2nc3c(N)nc4cc(Br)ccc4c3n21 (centres undefined)
15,95 to 98,CCOP(=O)(C=Cc1ccc([N+](=O)[O-])cc1)OCC
16,82.5 to 84,Cc1cccc(-c2nsc(=O)o2)c1
17,45.9 to 48,CCCCCCCc1ccc(C2CC(CCCCCC)C(=O)O2)cc1 (centres undefined)
18,223 to 225,Cc1ccc(NC(=O)N[C@]2(C3CCCCC3)N=Cc3ccccc3N(C)C2=O)cc1N(C)c1nnn[nH]1
19,215 to 216,O=C(Nc1ccn(C(=O)c2ccccc2)c(=O)n1)c1ccccc1
20,57,CCOC(=O)C1COc2ccc(C(C)=O)cc2O1 (centres undefined)
21,155 to 157,CON=C(C)c1ccc2nnn(Cc3ccc4ncccc4c3)c2n1
22,200 to 202,O=[N+]([O-])c1ccc2sc3ccc(F)cc3c2c1
23,91 to 92,O=C1C2=C(CCCC2)C(=O)N1c1c(F)cc(F)cc1F
24,87 to 89,Nc1ccc2oc3c(OC(F)F)ccc(C(=O)Nc4c(Cl)cncc4Cl)c3c2c1

row,melting point [°C],Structure (SMILES)
1,151 to 154,CCOc1ccnc(N2CCN(C(=O)c3ccccc3C#N)CC2)n1
2,225 to 227,CC(C)(CCO)c1ccc(C(=O)Nc2cn3cc(-n4ccnc4)ccc3n2)cc1
3,125,CCOC(=O)c1ccc(C(=O)c2ccc(N)cc2)cc1
4,65 to 68,COc1ccc(C2CC(=O)N(Cc3ccc4cc(F)ccc4n3)C2)cc1OC1CCCC1 (centres undefined)
5,177 to 178,COC(=O)Nc1ccc(C(=O)OC)cc1
6,90 to 91,CC1Cc2cc(C#N)ccc2C1=O (centres undefined)
7,191 to 192,CCCn1c(=O)c(N)nc2ccccc21
8,78,COc1cccc(Nc2ccnc(Nc3cc(OC)c(OC)c(OC)c3)n2)c1
9,225 to 226,CNC(=O)c1ccn2nc(-c3ccccc3)c(-c3ccc(=O)n(C(C)C)n3)c2c1
10,210 to 212,N=C(NCC1CCCO1)Nc1c([N+](=O)[O-])cnc2ccccc12 (centres undefined)
11,159 to 162,O=C(NCCC[C@H]1OC[C@H](c2cccc3cc(OCC4CC4)ccc32)CO1)Oc1ccc(Cl)cc1
12,> 300,O=C(O)C=Cc1ccc(CCc2ccncc2)cc1
13,190 to 192,COc1ccc(NS(=O)(=O)c2ccc(OC)c3c2c2ccccc2n3C=O)cc1
14,257 to 259,CNCC1CN(c2c(F)cc3c(=O)c(C(=O)O)cn(C4CC4)c3c2F)CCO1 (centres undefined)
15,189 to 191,Cc1ccc(Sc2ccccc2C(=O)O)c([N+](=O)[O-])c1
16,317 to 318,NC(=O)[C@H]1CCc2c(sc3nc(CN4C(=O)COC4=O)c(Cl)c(-c4ccc(O)cc4)c23)C1
17,105 to 107,CCONC(=O)n1nc(Oc2c(Cl)cc(C(F)(F)F)cc2Cl)cc1C
18,145 to 147,CN(C)c1ncc(-c2cc(Cl)cc(Cl)c2Cl)c(N)n1
19,201 to 203,O=C(CBr)Nc1ccc(Cl)cc1C(=O)c1ccc(O)cc1
20,184 to 185,Cc1ccc(C2C(=O)N(c3ccccc3)N(c3ccccc3)C2=O)cc1
21,220 to 221,Nc1nnc(-c2ccc3occ(-c4ccccc4Cl)c3c2)o1
22,255 to 257,CN(Cc1cccc2c1C(=O)N(C1CCC(=O)NC1=O)C2=O)C(=O)Nc1ccc(Cl)c(Cl)c1 (centres undefined)

row,Structure (SMILES),melting point [°C]
1,N#Cc1ccc(C2=NOC(CO)C2)c2ccccc12 (centres undefined),138 to 139
2,O=[N+]([O-])c1nccn1CC(O)CC1C2CCCN21 (centres undefined),81 to 81.5
3,CC(=O)N1N=C(c2ccc([N+](=O)[O-])cc2)c2cc3c(cc2C=C1C)OCO3,205 to 207
4,COC(=O)c1ccc(-c2ccc(-c3cn([C@H]4CN5CCC4CC5)nn3)s2)cc1F,250
5,Cc1ncccc1C(C#N)N1CCN(C(=O)Cc2ccc(OCc3ccc4ccccc4n3)cc2)CC1 (centres undefined),64 to 68
